Patent US20240158851A1, “METHOD FOR […] ADDICTION, METHOD FOR SCREENING THERAPEUTIC AGENT FOR DRUG ADDICTION AND PHARMACEUTICAL COMPOSITION FOR PREVENTING OR TREATING DRUG ADDICTION” (KOREA INSTITUTE OF SCIENCE AND TECHNOLOGY, priority 2020, published 2024)

Assays:
SYNCRIP [1] = assay: SYNCRIP expression in brain striatum by qPCR; conditions: drug addiction animal model (MA) vs control group
[2] = tested on: egocentric spatial learning; assay: Water cross maze test of egocentric spatial learning; conditions: probe test after 3 days learning; lentivirus injected into striatum after drug addiction
miR-137 [3] = assay: Serum miR-137 (qPCR) in drug-addicted (gradual ramp-up) animal model with striatal SYNCRIP overexpression; conditions: gradual ramp-up methamphetamine protocol, one week withdrawal; lentivirus into striatum 4 weeks before
SYNCRIP [4] = assay: SYNCRIP expression in brain striatum by Western blotting; conditions: drug addiction animal model (MA) vs control group
hyperactivity = assay: Open field test of methamphetamine-induced hyperactivity; format: in vivo, mouse; conditions: open field 20 min after methamphetamine 4.0 mg/kg
Experimental: Before methamphetamine injection into each animal model, an open field test was conducted for 20 min to measure the activity of the animal model, which was used as a baseline.
4.0 mg/kg of methamphetamine was administered to the control group (Comparative group 1) and an open field test was again conducted for 20 min to measure the activity of the animal model.
4.0 mg/kg of methamphetamine was administered to the drug addiction animal model (MA) (Comparative group 2) and an open field test was again conducted for 20 min to measure the activity of the animal model.
Finally, the activity of each group was compared with the baseline and the activity increase was expressed as a percentage relative to the baseline.

miR-137 [5] = assay: Serum miR-137 (qPCR) in mild drug-addicted animal model with striatal SYNCRIP overexpression; conditions: mild drug addiction: methamphetamine 1.0 mg/kg i.p. once every other day for 2 weeks; lentivirus into striatum 4 weeks before
miR-137 [6] = assay: miR-137 expression (qPCR) in striatum and serum of methamphetamine drug addiction animal model; conditions: drug addiction animal model (MA) vs control group, gradual ramp-up protocol, one week withdrawal

CN[C@@H](C)Cc1ccccc1 [methamphetamine]
expression level of SYNCRIP in brain striatum (qPCR) (SYNCRIP [1]): decreased but was significantly higher | egocentric spatial learning (percent of mice) [2]: abnormally enhanced | expression level of miR-137 in serum (miR-137 [3]): significantly reduced | expression level of SYNCRIP in brain striatum (Western blotting) (SYNCRIP [4]): decreased to a significantly lower level | hyperactivity (activity increase relative to baseline) (hyperactivity): significantly increased | expression level of serum miR-137 (miR-137 [5]): significantly low | expression level of miR-137 in serum (miR-137 [6]; serum): significantly low | expression level of miR-137 in striatum (miR-137 [6]; striatum): significantly high
